Values joined by “and” are separate entries in the source; they are usually repeats but may differ in a detail not shown here. Identical values can stand only once.
Assay: Stability of docetaxel dissolved and left standing in alcohols at 50° C. (HPLC purity and degradation degree)
Assay type: physicochemical
Settings: dissolution and standing at 50° C.
Experimental: The purity and recovery rate of docetaxel in the present specification were calculated by quantity analysis using HPLC under the conditions of Table 2.
To evaluate the stability of docetaxel in the case that hydrated crystalline docetaxel is prepared by dissolution in alcohols at a high temperature, methanol and ethanol were each used as an organic solvent and dissolution temperature and standing temperature were 50° C., and change in purity of docetaxel and degradation degree were measured after letting it stand for 0, 1, 5, 10, and 24 hours.

CC(=O)O[C@@]12CO[C@@H]1C[C@H](O)[C@@]1(C)C(=O)[C@H](O)C3=C(C)[C@@H](OC(=O)[C@H](O)[C@@H](NC(=O)OC(C)(C)C)c4ccccc4)C[C@@](O)([C@@H](OC(=O)c4ccccc4)[C@H]21)C3(C)C [docetaxel]
7-epi-docetaxel Amounts Produced (EtOH, 0 hr): 0 area % | Change in Purity of Docetaxel (EtOH, 0 hr): 99.7480% | 7-epi-docetaxel Amounts Produced (EtOH, 1 hr): 0.4494 area % | Change in Purity of Docetaxel (EtOH, 1 hr): 99.2959% | 7-epi-docetaxel Amounts Produced (EtOH, 5 hr): 1.8948 area % | Change in Purity of Docetaxel (EtOH, 5 hr): 97.8546% | 7-epi-docetaxel Amounts Produced (EtOH, 10 hr): 2.9451 area % | Change in Purity of Docetaxel (EtOH, 10 hr): 96.8045% | 7-epi-docetaxel Amounts Produced (EtOH, 24 hr): 4.5544 area % | Change in Purity of Docetaxel (EtOH, 24 hr): 95.1952% | 7-epi-docetaxel Amounts Produced (MeOH, 0 hr): 0 area % | Change in Purity of Docetaxel (MeOH, 0 hr): 99.7469% | 7-epi-docetaxel Amounts Produced (MeOH, 1 hr): 4.0163 area % | Change in Purity of Docetaxel (MeOH, 1 hr): 95.7% and 95.7399% | 7-epi-docetaxel Amounts Produced (MeOH, 5 hr): 17.2282 area % | Change in Purity of Docetaxel (MeOH, 5 hr): 81.8743% | 7-epi-docetaxel Amounts Produced (MeOH, 10 hr): 28.4728 area % | Change in Purity of Docetaxel (MeOH, 10 hr): 69.3707% | 7-epi-docetaxel Amounts Produced (MeOH, 24 hr): 41.5352 area % | Change in Purity of Docetaxel (MeOH, 24 hr): 50.7338%

Reference: US8163940B2, “Method for preparation of amorphous, anhydrous crystalline or hydrated crystalline docetaxel” (Samyang Genex Corporation, priority 2006, dated 2012)
